Values of other authors, collected in PMC11674187, “Inhibitory Effects of Cenobamate on Multiple Human Cardiac Ion Channels and Possible Arrhythmogenic Consequences” (Biomolecules, 2024).
pIC50: −log10 of the molar value.

How the values were obtained:
[1] = system: human ventricular cardiomyocyte electrophysiology model; design: method as in ref [18] Dutta et al., 2017; details: 12-compound CiPA training set; ref [18] Dutta et al., 2017; cited from earlier work
persistent INa = system: persistent INa; design: method as in ref [5] p. 8; details: other antiseizure drugs; ref [5] p. 8; cited from earlier work
Nav1.5 = Nav1.5 (Homo sapiens, UniProt Q14524); design: method as in PMID 34785211, PMID 33620150; details: PT 35–37 °C vs. room temperature; ref [11],[40]; cited from earlier work
Chain of Nav1.5 (Q14524 whole entry): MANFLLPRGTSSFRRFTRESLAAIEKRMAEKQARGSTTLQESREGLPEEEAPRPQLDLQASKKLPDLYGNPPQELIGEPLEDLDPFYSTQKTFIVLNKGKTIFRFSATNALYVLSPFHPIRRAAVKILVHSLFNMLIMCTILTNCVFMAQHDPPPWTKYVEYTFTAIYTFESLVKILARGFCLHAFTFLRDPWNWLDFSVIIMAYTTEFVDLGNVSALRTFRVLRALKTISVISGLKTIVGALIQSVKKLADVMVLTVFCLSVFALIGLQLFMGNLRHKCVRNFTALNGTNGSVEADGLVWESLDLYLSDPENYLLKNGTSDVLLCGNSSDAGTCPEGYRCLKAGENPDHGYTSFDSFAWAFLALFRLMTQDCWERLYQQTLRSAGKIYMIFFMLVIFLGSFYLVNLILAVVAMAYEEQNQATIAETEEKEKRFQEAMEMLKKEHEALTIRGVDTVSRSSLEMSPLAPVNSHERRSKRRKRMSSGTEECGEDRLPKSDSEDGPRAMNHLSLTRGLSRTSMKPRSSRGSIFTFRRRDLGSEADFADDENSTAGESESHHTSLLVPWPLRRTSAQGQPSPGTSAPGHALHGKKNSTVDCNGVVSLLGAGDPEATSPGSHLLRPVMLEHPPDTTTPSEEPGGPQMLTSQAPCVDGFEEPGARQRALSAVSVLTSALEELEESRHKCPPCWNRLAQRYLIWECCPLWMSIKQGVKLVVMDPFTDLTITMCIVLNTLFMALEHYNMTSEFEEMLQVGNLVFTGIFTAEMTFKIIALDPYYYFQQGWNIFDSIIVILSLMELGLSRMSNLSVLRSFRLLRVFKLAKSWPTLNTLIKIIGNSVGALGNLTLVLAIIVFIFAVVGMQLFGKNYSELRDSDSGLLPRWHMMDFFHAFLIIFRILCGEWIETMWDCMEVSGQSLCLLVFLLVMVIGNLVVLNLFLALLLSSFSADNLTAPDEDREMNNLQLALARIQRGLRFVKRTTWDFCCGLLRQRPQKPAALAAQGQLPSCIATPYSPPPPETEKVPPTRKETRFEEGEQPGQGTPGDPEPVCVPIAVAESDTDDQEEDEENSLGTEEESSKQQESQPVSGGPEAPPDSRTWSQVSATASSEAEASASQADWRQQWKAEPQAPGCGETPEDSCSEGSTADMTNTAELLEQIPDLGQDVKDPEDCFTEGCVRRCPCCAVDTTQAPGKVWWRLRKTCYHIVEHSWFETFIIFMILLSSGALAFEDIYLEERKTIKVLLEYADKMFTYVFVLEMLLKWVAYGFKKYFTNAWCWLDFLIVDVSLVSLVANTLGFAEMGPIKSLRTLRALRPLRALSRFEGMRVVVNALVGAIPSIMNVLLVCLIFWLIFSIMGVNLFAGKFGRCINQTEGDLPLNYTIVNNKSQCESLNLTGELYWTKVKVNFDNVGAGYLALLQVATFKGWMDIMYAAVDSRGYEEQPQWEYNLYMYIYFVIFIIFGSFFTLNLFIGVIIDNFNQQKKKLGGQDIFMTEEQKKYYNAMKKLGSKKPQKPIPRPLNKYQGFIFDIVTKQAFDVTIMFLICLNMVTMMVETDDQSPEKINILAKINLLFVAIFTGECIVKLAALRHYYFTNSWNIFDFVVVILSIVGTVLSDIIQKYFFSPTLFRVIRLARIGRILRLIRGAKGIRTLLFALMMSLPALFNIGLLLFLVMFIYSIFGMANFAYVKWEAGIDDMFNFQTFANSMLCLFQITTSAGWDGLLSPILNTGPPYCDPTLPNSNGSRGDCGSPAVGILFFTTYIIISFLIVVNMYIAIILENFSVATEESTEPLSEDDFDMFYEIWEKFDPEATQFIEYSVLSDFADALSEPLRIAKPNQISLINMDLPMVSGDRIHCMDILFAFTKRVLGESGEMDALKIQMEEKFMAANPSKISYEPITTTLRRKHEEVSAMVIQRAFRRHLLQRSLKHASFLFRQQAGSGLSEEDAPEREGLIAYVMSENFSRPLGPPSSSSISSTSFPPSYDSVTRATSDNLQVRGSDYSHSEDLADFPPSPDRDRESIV

Compound | CiPA torsadogenic risk category [1] | also measured
CC(C)COCC(CN(Cc1ccccc1)c1ccccc1)N1CCCC1 (stereo not shown) [bepridil] | high risk | –
NC(=O)N1c2ccccc2C=Cc2ccccc21 [carbamazepine] | – | pIC50 (persistent INa): 4.10
CCN(CC)CCCC(C)Nc1ccnc2cc(Cl)ccc12 (stereo not shown) [chloroquine] | – | change of apparent IC50 on peak Na+ current at physiological vs. room temperature (Nav1.5): approximately four-fold reduction
CN(C)CCCN1c2ccccc2Sc2ccc(Cl)cc21 [chlorpromazine] | intermediate risk | –
COc1cc(N)c(Cl)cc1C(=O)NC1CCN(CCCOc2ccc(F)cc2)CC1OC (stereo not shown) [cisapride] | intermediate risk | –
CN(CCOc1ccc(NS(C)(=O)=O)cc1)CCc1ccc(NS(C)(=O)=O)cc1 [dofetilide] | high risk | –
CCN(CCO)CCCC(C)Nc1ccnc2cc(Cl)ccc12 (stereo not shown) [hydroxychloroquine] | – | change of apparent IC50 on peak Na+ current at physiological vs. room temperature (Nav1.5): more than a two-fold reduction
Nc1nnc(-c2cccc(Cl)c2Cl)c(N)n1 [lamotrigine] | – | pIC50 (persistent INa): 3.93
Cc1cccc(C)c1OCC(C)N (stereo not shown) [mexiletine] | low risk | –
Cc1nccn1CC1CCc2c(c3ccccc3n2C)C1=O (stereo not shown) [ondansetron] | intermediate risk | –
C=C[C@H]1C[N@@]2CC[C@H]1C[C@@H]2[C@@H](O)c1ccnc2ccc(OC)cc12 [quinidine] | high risk | –
COc1ccccc1OCC(O)CN1CCN(CC(=O)Nc2c(C)cccc2C)CC1 (stereo not shown) [ranolazine] | low risk | –
Nc1nc2ccc(OC(F)(F)F)cc2s1 [riluzole] | – | pIC50 (persistent INa): 5.70
